target: T1, wild-type human ALK cytoplasmic domain (amino acids 1058-1620) (Homo sapiens, UniProt Q9UM73); assay: ALK Inhibition in Enzyme Assay (Lance TR-FRET); assay type: biochemical; settings: 2 nM enzyme, ATP at 40 μM (Km apparent), 90 minutes, mean of three replicates; read-out: ALK IC50
T1 construct: The cytoplasmic domain (amino acids 1058-1620) of wild-type human ALK; GST (N); made in house; host or cells: SF9 insect cells
Procedure: ALK Inhibition in Enzyme Assay
Kinase activity of the purified protein was assessed using a Lance® TR-FRET assay. […] The reaction was allowed to proceed for 90 minutes at room temperature and was then terminated with 20 mM EDTA in 50 mM Tris (pH 7.5), 100 mM NaCl, 0.05% BSA, and 0.1% Tween-20. Phosphorylation of the peptide substrate was detected using the Lance® detection reagents streptavidin-allophycocyanin (SA-APC) and Eu-W1024 anti-phosphotyrosine antibody (PT66) from Perkin Elmer Life Sciences (Waltham, Mass.). The plates were read on a RUBY star plate reader (BMG LABTECH, Cary, N.C.) with an excitation wavelength of 320 nm.

T1 sequence (Q9UM73 1058-1620): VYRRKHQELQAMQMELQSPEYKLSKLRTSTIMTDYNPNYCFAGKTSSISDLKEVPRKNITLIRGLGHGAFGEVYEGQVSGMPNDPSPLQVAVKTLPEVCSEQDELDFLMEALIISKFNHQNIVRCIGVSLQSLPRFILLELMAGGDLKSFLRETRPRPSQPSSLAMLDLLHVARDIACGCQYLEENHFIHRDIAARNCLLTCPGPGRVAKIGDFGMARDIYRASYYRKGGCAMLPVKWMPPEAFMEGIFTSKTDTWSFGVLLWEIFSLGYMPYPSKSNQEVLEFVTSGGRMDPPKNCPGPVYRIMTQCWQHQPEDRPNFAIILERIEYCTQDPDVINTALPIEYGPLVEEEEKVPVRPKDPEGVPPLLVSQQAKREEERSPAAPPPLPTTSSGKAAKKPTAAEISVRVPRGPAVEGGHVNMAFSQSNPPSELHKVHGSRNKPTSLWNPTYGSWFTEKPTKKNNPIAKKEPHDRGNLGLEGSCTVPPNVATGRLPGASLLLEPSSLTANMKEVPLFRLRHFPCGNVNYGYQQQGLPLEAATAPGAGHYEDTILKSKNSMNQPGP

| IC50 [nM] | Compound |
| --- | --- |
| 100 to 1000 | COc1cc(Nc2nccc(N3CC(C(=O)NCc4ccc(C)cc4)CCC3C)n2)cc(OC)c1OC (mixture of isomers) [Example 194, 6-Methyl-N-(4-Methylbenzyl)-1-(2-(3,4,5-Trimethoxyphenylamino)Pyrimidin-4-Yl)Piperidine-3-Carboxamide] |
| 1000 to 5000 | COc1cc(Nc2nccc(N3CC(C)CC(C(=O)NCc4ccc(C)cc4)C3)n2)cc(OC)c1OC (mixture of isomers) [Example 195, 5-Methyl-N-(4-Methylbenzyl)-1-(2-(3,4,5-Trimethoxyphenyl Amino)Pyrimidin-4-Yl)Piperidine-3-Carboxamide] |
| 1000 to 5000 | COc1cc(Nc2nccc(N3CCNC(C(=O)NCc4ccc(C)cc4)C3)n2)cc(OC)c1OC (stereo not shown) [Example 2, N-(4-Methylbenzyl)-4-(2-(3,4,5-Trimethoxyphenylamino)Pyrimidin-4-Yl)Piperazine-2-Carboxamide] |
| 100 to 1000 | O=C(NCc1ccc(OC(F)(F)F)cc1)[C@H]1CCCN(c2ccnc(Nc3ccc(N4CCOCC4)cc3)n2)C1 [Example 3, (S)-1-(2-(4-Morpholinophenylamino)Pyrimidin-4-Yl)-N-(4-(Trifluoromethoxy)Benzyl)Piperidine-3-Carboxamide] |
| 1000 to 5000 | COc1cc(Nc2nccc(N3CCSC(C(=O)NCc4ccc(C)cc4)C3)n2)cc(OC)c1OC (stereo not shown) [Example 4, N-(4-Methylbenzyl)-4-(2-(3,4,5-Trimethoxy-Phenylamino)Pyrimidin-4-Yl)Thiomorpholine-2-Carboxamide] |
| 1000 to 5000 | COc1cc(Nc2nccc(N3CCOC(C(=O)NCc4ccc(C)cc4)C3)n2)cc(OC)c1OC (stereo not shown) [Example 5, N-(4-Methylbenzyl)-4-(2-(3,4,5-Trimethoxy-Phenylamino)Pyrimidin-4-Yl)Morpholine-2-Carboxamide] |
| 1000 to 5000 | COc1cc(Nc2ncc(C)c(N3CCC[C@H](C(=O)NCc4ccc(C)cc4)C3)n2)cc(OC)c1OC [Example 8, (S)-1-(5-Methyl-2-(3,4,5-Trimethoxyphenyl-Amino)Pyrimidin-4-Yl)-N-(4-Methylbenzyl)Piperidine-3-Carboxamide] |
| 100 to 1000 | COc1cc(Nc2ncc(C)c(N3CCC[C@@H](C(=O)NCc4ccc(C)cc4)C3)n2)cc(OC)c1OC [Example 9, (R)-1-(5-Methyl-2-(3,4,5-Trimethoxyphenyl-Amino)Pyrimidin-4-Yl)-N-(4-Methylbenzyl)Piperidine-3-Carboxamide] |
| 100 to 1000 | COc1cc(Nc2ncc(Cl)c(N3CCC[C@H](C(=O)NCc4ccc(C)cc4)C3)n2)cc(OC)c1OC [Example 10, (S)-1-(5-Chloro-2-(3,4,5-Trimethoxyphenyl-Amino)Pyrimidin-4-Yl)-N-(4-Methylbenzyl)Piperidine-3-Carboxamide] |
| 5000 to 10000 | COc1cc(Nc2nc(C)cc(N3CCC[C@H](C(=O)NCc4ccc(C)cc4)C3)n2)cc(OC)c1OC [Example 11, (S)-1-(6-Methyl-2-(3,4,5-Trimethoxyphenyl-Amino)Pyrimidin-4-Yl)-N-(4-Methylbenzyl)Piperidine-3-Carboxamide] |
| > 10000 | COc1cc(Nc2nc(Cl)cc(N3CCC[C@H](C(=O)NCc4ccc(C)cc4)C3)n2)cc(OC)c1OC [Example 12, (S)-1-(6-Chloro-2-(3,4,5-Trimethoxyphenyl-Amino)Pyrimidin-4-Yl)-N-(4-Methylbenzyl)Piperidine-3-Carboxamide] |
| 1000 to 5000 | COc1cc(Nc2nccc(N3CCC[C@@H](C(=O)NCc4ccc(F)cc4)C3)n2)cc(OC)c1OC [Example 13, (R)—N-(4-Fluorobenzyl)-1-(2-(3,4,5-Trimethoxy-Phenylamino)Pyrimidin-4-Yl)Piperidine-3-Carboxamide] |
| 100 to 1000 | COc1cc(Nc2nccc(N3CCC[C@H](C(=O)NCc4ccc(F)cc4)C3)n2)cc(OC)c1OC [Example 14, (S)-N-((4-fluorophenyl)methyl)-1-(2-((3,4,5-tris(methyloxy)phenyl)amino)-4-pyrimidinyl)-3-piperidinecarboxamide] |
| 100 to 1000 | COc1ccc(CNC(=O)[C@H]2CCCN(c3ccnc(Nc4cc(OC)c(OC)c(OC)c4)n3)C2)cc1 [Example 15, (S)-N-((4-(methyloxy)phenyl)methyl)-1-(2-((3,4,5-tris(methyloxy)phenyl)amino)-4-pyrimidinyl)-3-piperidinecarboxamide] |
| 5000 to 10000 | COc1cc(Nc2nccc(N3CCC[C@@H](C(=O)NCc4ccncc4)C3)n2)cc(OC)c1OC [Example 18, (R)-N-(4-pyridinylmethyl)-1-(2-((3,4,5-trimethoxyphenyl)amino)-4-pyrimidinyl)-3-piperidinecarboxamide] |
| 1000 to 5000 | COc1cc(Nc2nccc(N3CCC[C@@H](C(=O)NCc4ccc(F)cc4)C3)n2)cc(OC)c1OC [Example 19, (R)-N-(4-fluorobenzyl)-1-(2-((3,4,5-trimethoxyphenyl)amino)-4-pyrimidinyl)-3-piperidinecarboxamide] |

| IC50 [nM] | Compound |
| --- | --- |
| 100 to 1000 | COc1cc(Nc2nccc(N3CCC[C@H](C(=O)NC(C)c4ccc(Br)cc4)C3)n2)cc(OC)c1OC (stereo partly drawn) [Example 26, (S)-N-(1-(4-bromophenyl)ethyl)-1-(2-((3,4,5-trimethoxyphenyl)amino)-4-pyrimidinyl)-3-piperidinecarboxamide] |
| 100 to 1000 | COc1cc(Nc2nccc(N3CCC[C@H](C(=O)N[C@@H](C)c4ccc(Br)cc4)C3)n2)cc(OC)c1OC [Example 27, (S)-N-((S)-1-(4-bromophenyl)ethyl)-1-(2-((3,4,5-trimethoxyphenyl)amino)-4-pyrimidinyl)-3-piperidinecarboxamide] |
| 50 to 100 | COc1cc(Nc2nccc(N3CCC[C@H](C(=O)NCc4cc(Cl)ccc4C)C3)n2)cc(OC)c1OC [Example 28, (S)-N-(5-chloro-2-methylbenzyl)-1-(2-((3,4,5-trimethoxyphenyl)amino)-4-pyrimidinyl)-3-piperidinecarboxamide] |
| 50 to 100 | COc1cc(Nc2nccc(N3CCC[C@H](C(=O)NCc4ccc(Cl)cc4F)C3)n2)cc(OC)c1OC [Example 29, (S)-N-(4-chloro-2-fluorobenzyl)-1-(2-((3,4,5-trimethoxyphenyl)amino)-4-pyrimidinyl)-3-piperidinecarboxamide] |
| 1000 to 5000 | COc1cc(Nc2nccc(N3CCC[C@H](C(=O)NC(c4ccccc4)C(F)(F)F)C3)n2)cc(OC)c1OC (stereo partly drawn) [Example 30, (S)-N-(2,2,2-trifluoro-1-phenylethyl)-1-(2-((3,4,5-trimethoxyphenyl)amino)-4-pyrimidinyl)-3-piperidinecarboxamide] |
| 1000 to 5000 | COc1cc(Nc2nccc(N3CCC[C@H](C(=O)NCc4cccc5ccccc45)C3)n2)cc(OC)c1OC [Example 31, (S)-N-(1-naphthalenylmethyl)-1-(2-((3,4,5-trimethoxyphenyl)amino)-4-pyrimidinyl)-3-piperidinecarboxamide] |
| 5000 to 10000 | COc1ccccc1CNC(=O)[C@H]1CCCN(c2ccnc(Nc3cc(OC)c(OC)c(OC)c3)n2)C1 [Example 32, (S)-N-(2-methoxybenzyl)-1-(2-((3,4,5-trimethoxyphenyl)amino)-4-pyrimidinyl)-3-piperidinecarboxamide] |
| 50 to 100 | COc1cc(Nc2nccc(N3CCC[C@H](C(=O)NCc4ccc(C(F)(F)F)cc4)C3)n2)cc(OC)c1OC [Example 34, (S)-N-(4-(trifluoromethyl)benzyl)-1-(2-((3,4,5-trimethoxyphenyl)amino)-4-pyrimidinyl)-3-piperidinecarboxamide] |
| 5000 to 10000 | COc1cc(Nc2nccc(N3CCC[C@H](C(=O)NCc4ccccc4C(F)(F)F)C3)n2)cc(OC)c1OC [Example 37, (S)-N-(2-(trifluoromethyl)benzyl)-1-(2-((3,4,5-trimethoxyphenyl)amino)-4-pyrimidinyl)-3-piperidinecarboxamide] |
| 100 to 1000 | COc1cccc(CNC(=O)[C@H]2CCCN(c3ccnc(Nc4cc(OC)c(OC)c(OC)c4)n3)C2)c1 [Example 38, (S)-N-(3-methoxybenzyl)-1-(2-((3,4,5-trimethoxyphenyl)amino)-4-pyrimidinyl)-3-piperidinecarboxamide] |
| 1000 to 5000 | COc1cc(Nc2nccc(N3CCC[C@H](C(=O)NC4CCc5ccccc54)C3)n2)cc(OC)c1OC (stereo partly drawn) [Example 39, (S)-N-(2,3-dihydro-1H-inden-1-yl)-1-(2-((3,4,5-trimethoxyphenyl)amino)-4-pyrimidinyl)-3-pipcridinecarboxamide] |
| 1000 to 5000 | COc1cc(Nc2nccc(N3CCC[C@H](C(=O)NCc4ccc(N(C)C)cc4)C3)n2)cc(OC)c1OC [Example 42, (S)-N-(4-(dimethylamino)benzyl)-1-(2-((3,4,5-trimethoxyphenyl)amino)-4-pyrimidinyl)-3-piperidinecarboxamide] |
| 100 to 1000 | COc1cc(Nc2nccc(N3CCC[C@H](C(=O)NC(C#N)c4ccccc4)C3)n2)cc(OC)c1OC (stereo partly drawn) [Example 43, (S)-N-(cyano(phenyl)methyl)-1-(2-((3,4,5-trimethoxyphenyl)amino)-4-pyrimidinyl)-3-piperidinecarboxamide] |
| 100 to 1000 | COc1cc(Nc2nccc(N3CCC[C@H](C(=O)NCc4ccc5c(c4)CCO5)C3)n2)cc(OC)c1OC [Example 44, (S)-N-(2,3-dihydro-1-bcnzofuran-5-ylmethyl)-1-(2-((3,4,5-trimethoxyphenyl)amino)-4-pyrimidinyl)-3-piperidinecarboxamide] |
| 100 to 1000 | COc1cc(Nc2nccc(N3CCC[C@H](C(=O)NC(C)c4ccc5[nH]ccc5c4)C3)n2)cc(OC)c1OC (stereo partly drawn) [Example 45, (S)-N-(1-(1H-indol-5-yl)ethyl)-1-(2-((3,4,5-trimethoxyphenyl)amino)-4-pyrimidinyl)-3-piperidinecarboxamide] |
